According to ChEMBL document CHEMBL1201862, “PubChem BioAssay data set” (2004):
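Growth conditions: 96-well plates. Treatment: test compound, 48 hours, 5 concentrations. Analysis: linear interpolation between bracketing concentrations; unreached endpoints set to highest concentration. GI50: concentration for 50% inhibition of growth.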 Calls of active or inactive are those of the source. No stated cut-off is given here; in the data, active = GI50 up to about 1.1 µM and inactive = higher. Where a SMILES comes first, the peptide text is derived from it. The star is where a group is joined. Cbz = O=C(OCc1ccccc1)*

Assays:
Experiment in all cases: NCI-60 cell line screen, 48 h
T47D = test system: T47D
SNB-78 = test system: SNB-78
LXFL 529 = test system: LXFL 529
KM-20L2 = test system: KM-20L2
HOP-18 = test system: HOP-18
M19-MEL = test system: M19-MEL
DLD-1 = test system: DLD-1
XF498 = test system: XF498

In the case of `COC(=O)C(CC(C)C)NC(=O)C(CCCNC(=N)N)NC(=O)OCc1ccccc1` (stereo not drawn) (Cbz-Arg-Leu-OMe; configuration not given here), the GI50 (T47D) is reported as > 100 µM (inactive).
With `O=[N+]([O-])C(=C1c2ccccc2-c2ccccc21)[N+](=O)[O-]` the GI50 (SNB-78) was > 100 µM (inactive), the GI50 (LXFL 529) was 41.3 µM (inactive) and the GI50 (KM-20L2) was 57.3 µM (inactive).
`CCOC(=O)COc1ccc2c(C)cc(=O)oc2c1` was tested, and the GI50 (T47D) was > 100 µM (inactive).
`Cc1cccc(C(C)(C)C)c1NC(=O)CCc1n[nH]c(=S)o1` was tested, and the GI50 (SNB-78) was > 100 µM (inactive), the GI50 (LXFL 529) was > 100 µM (inactive) and the GI50 (HOP-18) was > 100 µM (inactive). The GI50 (M19-MEL) was > 100 µM (inactive), the GI50 (KM-20L2) was > 100 µM (inactive) and the GI50 (DLD-1) was 98.4 µM (inactive).
For `NC1=CC(C(=O)c2ccncc2)c2nc3ccccc3nc21` (stereo not drawn), the GI50 (T47D) was > 100 µM (inactive).
In the case of `CC1CN(c2cc3c(cc2F)c(=O)c(C(=O)O)cn3-c2ccc(N3CCN(C)CC3)cn2)CC(C)N1` (stereo not drawn), the GI50 (T47D) is reported as > 100 µM (inactive).
`O=C(Nc1cccc(C(F)(F)F)c1)c1cc(Br)cc(Br)c1O` [FLUOROSALAN] was tested, and the GI50 (T47D) was 3.24 µM (inactive).
For `C(=N\Nc1ccc(-c2nc3ccccc3[nH]2)cc1)/c1c(-c2ccc(Cc3ccccc3)cc2)[nH]c2ccccc12`, the GI50 (T47D) was 7.18 µM (inactive).
In the case of `CC(=O)O[C@H]1CC[C@@]2(C)C(=CC[C@H]3C(CC#N)[C@@](C)(C#N)CCC32)C1` (stereo partly drawn), the GI50 (SNB-78) is reported as 47.6 µM (inactive), the GI50 (LXFL 529) is reported as > 100 µM (inactive) and the GI50 (M19-MEL) is reported as > 100 µM (inactive). The GI50 (KM-20L2) was > 100 µM (inactive), the GI50 (DLD-1) was > 100 µM (inactive) and the GI50 (XF498) was > 100 µM (inactive).
`CC(C)(C)OC(=O)NC(Cc1ccc(OC(C)(C)C)cc1)C(=O)N[C@H]1CCC[C@H]1C(=O)NC(Cc1ccccc1)C(=O)N1CCCC1C(N)=O` (stereo partly drawn) was tested, and the GI50 (T47D) was > 100 µM (inactive).
With `COc1ccc2[nH]c3c(c2c1)CCc1ccccc1-3` the GI50 (T47D) was > 100 µM (inactive).
`CCCCNN` was tested, and the GI50 (T47D) was > 100 µM (inactive).
In the case of `O=C1/C(=C/c2ccc(O)cc2)CCc2ccccc21`, the GI50 (T47D) is reported as 50.6 µM (inactive).
`COc1cc(/C=C/C(=O)C2(C(=O)/C=C/c3cc(OC)c(OC)c(OC)c3)CCCCC2)cc(OC)c1OC` was tested, and the GI50 (T47D) was 76.2 µM (inactive).
`COc1ccc(NC(=O)CC2S/C(=N\c3ccccc3C)NC2=O)c([N+](=O)[O-])c1` (stereo not drawn) was tested, and the GI50 (SNB-78) was > 100 µM (inactive), the GI50 (LXFL 529) was > 100 µM (inactive) and the GI50 (M19-MEL) was > 100 µM (inactive). The GI50 (KM-20L2) was > 100 µM (inactive), the GI50 (DLD-1) was > 100 µM (inactive) and the GI50 (XF498) was > 100 µM (inactive).
In the case of `O=c1cc(-c2ccc(O)cc2)oc2cc(O[C@@H]3O[C@H](CO)[C@@H](O)[C@H](O)[C@H]3O)cc(O)c12` [APIGETRIN], the GI50 (T47D) is reported as 81.7 µM (inactive).
For `Cc1ccc(S(=O)(=O)NNC(=S)Nc2cccc3ccccc23)cc1`, the GI50 (T47D) was 39.5 µM (inactive).
With `Clc1ccc(/C=N/c2ccc3c(c2)Cc2ccccc2-3)c(Cl)c1` the GI50 (T47D) was > 100 µM (inactive).
In the case of `Cc1c(C2Cc3ccccc3N2)c2ccccc2n1C` (stereo not drawn), the GI50 (SNB-78) is reported as > 100 µM (inactive), the GI50 (LXFL 529) is reported as > 100 µM (inactive) and the GI50 (M19-MEL) is reported as > 100 µM (inactive). The GI50 (KM-20L2) was > 100 µM (inactive), the GI50 (DLD-1) was > 100 µM (inactive) and the GI50 (XF498) was > 100 µM (inactive).
For `CCOC(=O)Cc1csc(Nc2ccccc2[N+](=O)[O-])n1`, the GI50 (SNB-78) was > 100 µM (inactive), the GI50 (LXFL 529) was > 100 µM (inactive) and the GI50 (HOP-18) was > 100 µM (inactive). For the same molecule, the GI50 (M19-MEL) was > 100 µM (inactive) and the GI50 (KM-20L2) was > 100 µM (inactive).
With `CC(=O)NC(Cc1ccc(O)cc1)C(=O)O` (stereo not drawn) the GI50 (T47D) was > 100 µM (inactive).
For `CNc1ncnc2c1cnn2Cc1cn(COCC(O)CO)nn1` (stereo not drawn), the GI50 (T47D) was > 100 µM (inactive).
For `CN(O)C(=O)CCC(NC(=O)CCC(N)C(=O)O)C(=O)NCC(=O)O` (stereo not drawn), the GI50 (T47D) was > 100 µM (inactive).
`O=C1/C(=C2\Sc3c(ccc(Cl)c3Cl)C2=O)Sc2c1ccc(Cl)c2Cl` was tested, and the GI50 (T47D) was > 100 µM (inactive).
`CCCCn1cnc2c(SC)ncnc21` was tested, and the GI50 (T47D) was > 100 µM (inactive).
With `NC(CCCCNCc1ccccc1O)C(=O)O` (stereo not drawn) the GI50 (SNB-78) was > 100 µM (inactive), the GI50 (LXFL 529) was > 100 µM (inactive) and the GI50 (HOP-18) was > 100 µM (inactive). For the same molecule, the GI50 (M19-MEL) was > 100 µM (inactive), the GI50 (KM-20L2) was > 100 µM (inactive) and the GI50 (DLD-1) was > 100 µM (inactive).
With `CC1(C)CC(=O)c2c(nc3c(ccc4ccccc43)c2-c2ccc(NC(=O)CCCC(=O)Nc3ccc(-c4c5c(nc6c4ccc4ccccc46)CC(C)(C)CC5=O)cc3)cc2)C1` the GI50 (T47D) was > 100 µM (inactive).
For `COc1ccc(C(=O)/C=C/c2ccc(O)c(O)c2)c(OC)c1`, the GI50 (T47D) was 1.55 µM (inactive).
In the case of `O=c1c2cccnc2ncn1CCCN1CCOCC1`, the GI50 (SNB-78) is reported as > 100 µM (inactive), the GI50 (LXFL 529) is reported as > 100 µM (inactive) and the GI50 (M19-MEL) is reported as > 100 µM (inactive). The GI50 (KM-20L2) was > 100 µM (inactive), the GI50 (DLD-1) was > 100 µM (inactive) and the GI50 (XF498) was > 100 µM (inactive).
In the case of `c1ccc2c[n+](Cc3ccnc4ccccc34)ccc2c1`, the GI50 (T47D) is reported as > 100 µM (inactive).
For `O=[N+]([O-])/C(C(Cl)=C(Cl)Cl)=C(\Nc1ccccc1)n1nnc2ccccc21`, the GI50 (T47D) was > 100 µM (inactive).
For `N=c1oc2ccccc2cc1C(=O)Nc1cccc2ccccc12`, the GI50 (T47D) was > 100 µM (inactive).
`CCOc1cc(NC(C)=O)ccc1C(=O)NN1C(=O)CSC1c1ccc(O)c(OC)c1` (stereo not drawn) was tested, and the GI50 (T47D) was 32.4 µM (inactive).
For `O=C1c2ccccc2-c2nnc3c(c21)-c1ccccc1C3`, the GI50 (T47D) was > 100 µM (inactive).
With `COc1cc(-c2n[nH]cc2CCCC(=O)Nc2ccccc2[N+](=O)[O-])ccc1O` the GI50 (LXFL 529) was > 100 µM (inactive), the GI50 (HOP-18) was > 100 µM (inactive) and the GI50 (DLD-1) was > 100 µM (inactive). For the same molecule, the GI50 (XF498) was > 100 µM (inactive).
With `O=C1C2CC(Cl)C(SSC3CC4C(=O)N(SC(Cl)(Cl)C(Cl)Cl)C(=O)C4CC3Cl)CC2C(=O)N1SC(Cl)(Cl)C(Cl)Cl` (stereo not drawn) the GI50 (T47D) was 2.25 µM (inactive).
`CC(C)OC(=O)c1ccc(CCC2=CC(=O)C(Br)=CC2=O)cc1` was tested, and the GI50 (T47D) was 19.6 µM (inactive).
`CC(C)(C)OC(=O)C1=C(N)N(Cc2ccccc2)C2(C)C=CC(=O)C=C12` (stereo not drawn) was tested, and the GI50 (T47D) was 3.1 µM (inactive).
In the case of `C/C(=C\c1ccccc1)C(=O)NCc1ccc(C(=O)NCCc2c[nH]c3ccccc23)cc1`, the GI50 (T47D) is reported as > 100 µM (inactive).
In the case of `COC(=O)c1cc(CC2Cc3cc4c(cc3C2=O)CCC4)cc2c1CCC2` (stereo not drawn), the GI50 (T47D) is reported as > 100 µM (inactive).
For `COC(=O)c1cc(C#N)[nH]c1-c1ccc(Br)s1`, the GI50 (T47D) was 1.17 µM (inactive).
For `Clc1nc2c(C#Cc3ccccc3)ncnc2n1C1CCCCO1` (stereo not drawn), the GI50 (T47D) was 19.1 µM (inactive).
In the case of `Cc1ccc(O)c(C(c2ccc(C(c3cc(C)ccc3O)c3cc(C)ccc3O)cc2)c2cc(C)ccc2O)c1`, the GI50 (T47D) is reported as 1.75 µM (inactive).
`O=C(Cc1nc2ccccc2s1)C(=O)Nc1ccc(Cl)cc1` was tested, and the GI50 (SNB-78) was > 100 µM (inactive), the GI50 (LXFL 529) was > 100 µM (inactive) and the GI50 (HOP-18) was > 100 µM (inactive). For the same molecule, the GI50 (M19-MEL) was > 100 µM (inactive), the GI50 (KM-20L2) was > 100 µM (inactive) and the GI50 (DLD-1) was > 100 µM (inactive).
With `CCSC1=CC2(O)N(CCc3ccc(OC)c(OC)c3)C(=O)CC2(C(=O)OC)CC1=O` (stereo not drawn) the GI50 (T47D) was 21 µM (inactive).
In the case of `CCOC(=O)C(NC(=O)CC)(N1CCN(c2cc3c(cc2F)c(=O)c(C(=O)O)cn3C2CC2)CC1)C(F)(F)F` (stereo not drawn), the GI50 (T47D) is reported as > 100 µM (inactive).
With `CC(C)(C)NC(=O)/C(=C\Sc1ccccc1)c1ccccc1` the GI50 (T47D) was 56.1 µM (inactive).
In the case of `CC(C)(CO)CNc1cc(Cl)nc(N)n1`, the GI50 (T47D) is reported as 43.2 µM (inactive).
With `COC(OC)[C@@H]1OC[C@H](n2cnc3c(N)ncnc32)[C@H]1O` the GI50 (T47D) was > 100 µM (inactive).
`CCOc1c(OC)cc(-c2nc3n(n2)C(=O)C(CC)S3)cc1OC` (stereo not drawn) was tested, and the GI50 (T47D) was > 10 µM (inactive).
For `CC1(C)OC(=O)CC12CCN(Cc1ccccc1)CC2`, the GI50 (T47D) was > 100 µM (inactive).
With `CC(C)(C)OC(=O)NC(C)(C)C(=O)NCCC(=O)O` the GI50 (T47D) was > 100 µM (inactive).
In the case of `COC(=O)C1C(O)C(C)C(O)C(C)(O)C=C(C)C2=C3C(=C(C)C(=O)c4c(O)c(c(C)c(OC(C)=O)c43)NC(=O)C(C)=C/C=C\C(C)(O)C(O)C(C)C1O)OCO2` (stereo not drawn), the GI50 (T47D) is reported as 67.9 µM (inactive).
With `Clc1ccccc1-c1nn2c(CCCCCCCCc3nnc4sc(-c5ccccc5Cl)nn34)nnc2s1` the GI50 (T47D) was > 100 µM (inactive).
